# According to ChEMBL document CHEMBL1201862, “PubChem BioAssay data set” (2004):
# Several values for one entry are separate records, joined by “and”; a condition that tells them apart may be missing. Identical values can stand only once.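 Growth conditions: 96-well plates. Treatment: test compound, 48 hours, 5 concentrations. Analysis: linear interpolation between bracketing concentrations; unreached endpoints set to highest concentration. At the GI50, growth is halved.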 Activity calls are given as the source filed them. Rule as the data show it: active = GI50 up to about 1.1 µM and inactive = higher.
# Tests used:
# Test in all cases: inhibition of tumour cell growth, NCI panel, 48 h
# MDA-N = system: MDA-N
# HCT-15 = system: HCT-15
# SW-620 = system: SW-620
# SF-539 = system: SF-539
# OVCAR-4 = system: OVCAR-4
# OVCAR-8 = system: OVCAR-8
# MOLT-4 = system: MOLT-4
# UACC-62 = system: UACC-62
# ACHN = system: ACHN
# K562 = system: K562
# SK-OV-3 = system: SK-OV-3
# NCI/ADR-RES = system: NCI/ADR-RES
# SK-MEL-5 = system: SK-MEL-5
# OVCAR-5 = system: OVCAR-5
# HCT-116 = system: HCT-116
# NCI-H226 = system: NCI-H226
# HOP-92 = system: HOP-92
# NCI-H522 = system: NCI-H522
# RXF 393 = system: RXF 393
SMILES,GI50 (MDA-N),GI50 (HCT-15) [µM],GI50 (SW-620),GI50 (SF-539),GI50 (OVCAR-4),GI50 (OVCAR-8),GI50 (MOLT-4),GI50 (UACC-62),GI50 (ACHN),GI50 (K562),GI50 (SK-OV-3),GI50 (NCI/ADR-RES),GI50 (SK-MEL-5),GI50 (OVCAR-5),GI50 (HCT-116),GI50 (NCI-H226),GI50 (HOP-92),GI50 (NCI-H522),GI50 (RXF 393)
Cc1cc(S(=O)(=O)Nc2nc3ccccc3c(=O)n2N)c(S)cc1Cl,38.1 µM (inactive),35.5,59.8 µM (inactive),27.6 µM (inactive),29.6 µM (inactive),30.2 µM (inactive),47.6 µM (inactive),20.7 µM (inactive),33.6 µM (inactive),47.2 µM (inactive),32.3 µM (inactive),24.5 µM (inactive),29.6 µM (inactive),55.5 µM (inactive),32 µM (inactive),21.7 µM (inactive),–,–,–
Cc1ccc(N(C(=O)Nc2ccc(F)c(Cl)c2)C2=NCC(C)S2)cc1 (stereo not drawn),46.7 µM (inactive),52.7,74 µM (inactive),76.9 µM (inactive),38.7 µM (inactive),48.2 µM (inactive),31.6 µM (inactive),–,50.2 µM (inactive),43.9 µM (inactive),> 100 µM (inactive),22.6 µM (inactive),18.7 µM (inactive),> 100 µM (inactive),38.6 µM (inactive),–,–,–,–
N#CC1=CNc2sccc2S1(=O)=O,> 100 µM (inactive),61.9,> 100 µM (inactive),> 100 µM (inactive),> 100 µM (inactive),> 100 µM (inactive),39.6 µM (inactive),> 100 µM (inactive),> 100 µM (inactive),–,> 100 µM (inactive),> 100 µM (inactive),76.4 µM (inactive),> 100 µM (inactive),89.7 µM (inactive),> 100 µM (inactive),> 100 µM (inactive),> 100 µM (inactive),–
O=c1c2ccccc2nc2[nH][nH]c(=S)n12,> 100 µM (inactive),> 100,> 100 µM (inactive),> 100 µM (inactive),–,> 100 µM (inactive),58.6 µM (inactive),> 100 µM (inactive),> 100 µM (inactive),> 100 µM (inactive),> 100 µM (inactive),> 100 µM (inactive),> 100 µM (inactive),> 100 µM (inactive),> 100 µM (inactive),> 100 µM (inactive),> 100 µM (inactive),–,–
Cc1cc(NS(=O)(=O)c2ccc(/N=N/c3c(O)c(C(=O)O)cc4ccccc34)cc2)nc(C)n1,–,> 100,> 100 µM (inactive),> 100 µM (inactive),> 100 µM (inactive),> 100 µM (inactive),> 100 µM (inactive),> 100 µM (inactive),> 100 µM (inactive),> 100 µM (inactive),> 100 µM (inactive),> 100 µM (inactive),> 100 µM (inactive),> 100 µM (inactive),> 100 µM (inactive),> 100 µM (inactive),> 100 µM (inactive),> 100 µM (inactive),> 100 µM (inactive)
Cc1nc(N)sc1/N=N/c1cc(Cl)c([N+](=O)[O-])cc1Cl,–,21.4,16.4 µM (inactive),17.3 µM (inactive),–,14.6 µM (inactive),8.24 µM (inactive),16.4 µM (inactive),20.4 µM (inactive),13.1 µM (inactive),74.6 µM (inactive),20.6 µM (inactive),4.22 µM (inactive),31.3 µM (inactive),33.6 µM (inactive),14 µM (inactive),–,15.5 µM (inactive),34.4 µM (inactive)
CC1CN=C(Nc2ccc(S(N)(=O)=O)cc2)S1 (stereo not drawn),> 10 µM (inactive),> 100,> 100 µM (inactive),> 100 µM (inactive),> 100 µM (inactive),> 100 µM (inactive),> 100 µM (inactive),–,> 100 µM (inactive),> 100 µM (inactive),> 100 µM (inactive),> 100 µM (inactive),> 100 µM (inactive),> 100 µM (inactive),> 100 µM (inactive),–,> 100 µM (inactive),–,–
CC1(C)CC(=O)c2c(nc(SSc3nc4c(c(-c5ccccc5)c3C#N)C(=O)CC(C)(C)C4)c(C#N)c2-c2ccccc2)C1,–,> 10,> 10 µM (inactive),> 10 µM (inactive),> 10 µM (inactive),> 10 µM (inactive),> 10 µM (inactive),–,> 10 µM (inactive),> 10 µM (inactive),> 10 µM (inactive),> 10 µM (inactive),> 10 µM (inactive),> 10 µM (inactive),> 10 µM (inactive),> 10 µM (inactive),> 10 µM (inactive),> 10 µM (inactive),> 10 µM (inactive)
Cc1cccc2c1[C@]13OC(C)[C@]4(C)CC5OC(=O)[C@@]1(C)[C@@H]5[C@]34C(=O)O2 (stereo partly drawn),> 100 µM (inactive),> 100,> 100 µM (inactive),> 100 µM (inactive),–,> 100 µM (inactive),> 100 µM (inactive),> 100 µM (inactive),> 100 µM (inactive),> 100 µM (inactive),> 100 µM (inactive),> 100 µM (inactive),> 100 µM (inactive),> 100 µM (inactive),> 100 µM (inactive),> 100 µM (inactive),–,> 100 µM (inactive),–
N#Cc1c(-c2ccccc2)c(C#N)c(=S)n(C2OC(CO)C(O)C(O)C2O)c1N (stereo not drawn),> 100 µM (inactive),> 100,> 100 µM (inactive),> 100 µM (inactive),> 100 µM (inactive),> 100 µM (inactive),–,> 100 µM (inactive),99.8 µM (inactive) and 61.2 µM (inactive),> 100 µM (inactive) and 59.4 µM (inactive),–,–,71.6 µM (inactive),> 100 µM (inactive) and 85.1 µM (inactive),> 100 µM (inactive),> 100 µM (inactive),–,33.4 µM (inactive) and 51.5 µM (inactive),> 100 µM (inactive)
CC(C)(CN1CCCCC1)C(/C=C/c1ccccc1)=N\NC(=O)N/N=C(/C=C/c1ccccc1)C(C)(C)CN1CCCCC1,1.63 µM (inactive),1.37,1.7 µM (inactive),–,3.93 µM (inactive),1.78 µM (inactive),1.67 µM (inactive),1.54 µM (inactive),3.32 µM (inactive),1.19 µM (inactive),3.32 µM (inactive),1.74 µM (inactive),1.72 µM (inactive),4.29 µM (inactive),1.58 µM (inactive),2.37 µM (inactive),1.75 µM (inactive),1.83 µM (inactive),–
CC(C)c1cccc(C(C)C)c1NC(=O)C(=O)Cc1nc2ccc([N+](=O)[O-])cc2nc1O,–,9.31,71.6 µM (inactive),78.3 µM (inactive),64.3 µM (inactive),–,74.1 µM (inactive),24.5 µM (inactive),54.5 µM (inactive),30.2 µM (inactive),> 100 µM (inactive),–,> 10 µM (inactive),> 100 µM (inactive),39.2 µM (inactive),> 100 µM (inactive),50.6 µM (inactive),6.35 µM (inactive),> 100 µM (inactive)
